The NIST ThermoML archive (doi:10.1021/je500380x)

Experiment: mn = molality of the nth substance listed, in mol/kg
Conditions: 100 kPa, Liquid; for electrical conductivity: Alternating current cell with electrodes; for viscosity: Falling or rolling sphere viscometry; for mass density: Vibrating tube method

CCC(=O)OCCN1CCNCC1 [2-(piperazin-1-yl)ethyl propionate] + O
Conditions	electrical conductivity [S/m]	mass density [kg/m3]	viscosity [mPa·s]
293.15 K, m1 = 0.05	0.239	1000.1	1.031
293.15 K, m1 = 0.0999	0.436	1002.01	1.081
293.15 K, m1 = 0.1996	0.762	1005.79	1.172
293.15 K, m1 = 0.3	1.028	1009.71	1.247
293.15 K, m1 = 0.3997	1.25	1013.54	1.349
293.15 K, m1 = 0.5001	1.406	1017.42	1.464
293.15 K, m1 = 0.5992	1.56	1021.32	1.581
293.15 K, m1 = 0.6993	1.68	1025.14	1.726
293.15 K, m1 = 0.7997	1.77	1029.27	1.883
293.15 K, m1 = 0.9003	1.822	1033.09	2.075
293.15 K, m1 = 0.9988	1.85	1037.12	2.263
293.15 K, m1 = 1.199	1.86	1045.08	2.77
293.15 K, m1 = 1.402	1.8	1053.12	3.472
293.15 K, m1 = 1.6	1.68	1060.85	4.338
293.15 K, m1 = 1.802	1.523	1068.6	5.445
293.15 K, m1 = 1.998	1.35	1075.94	7.039
293.15 K, m1 = 2.2	1.16	1083.11	9.362
293.15 K, m1 = 2.402	0.955	1090.06	12.4
293.15 K, m1 = 2.6	0.779	1096.1	18.48
293.15 K, m1 = 2.798	0.595	1101.66	25.9
293.15 K, m1 = 3.002	0.461	1106.84	36.82
298.15 K, m1 = 0.05	0.267	998.94	0.92
298.15 K, m1 = 0.0999	0.486	1000.81	0.962
298.15 K, m1 = 0.1996	0.848	1004.54	1.039
298.15 K, m1 = 0.3	1.15	1008.41	1.103
298.15 K, m1 = 0.3997	1.4	1012.17	1.187
298.15 K, m1 = 0.5001	1.6	1015.99	1.289
298.15 K, m1 = 0.5992	1.76	1019.83	1.389
298.15 K, m1 = 0.6993	1.89	1023.57	1.51
298.15 K, m1 = 0.7997	2	1027.65	1.644
298.15 K, m1 = 0.9003	2.07	1031.4	1.805
298.15 K, m1 = 0.9988	2.12	1035.35	1.964
298.15 K, m1 = 1.199	2.13	1043.15	2.388
298.15 K, m1 = 1.402	2.06	1051.04	2.91
298.15 K, m1 = 1.6	1.94	1058.61	3.684
298.15 K, m1 = 1.802	1.76	1066.22	4.58
298.15 K, m1 = 1.998	1.57	1073.41	5.865
298.15 K, m1 = 2.2	1.36	1080.44	7.721
298.15 K, m1 = 2.402	1.16	1087.27	10.14
298.15 K, m1 = 2.6	0.931	1093.23	14.88
298.15 K, m1 = 2.798	0.738	1098.69	20.54
298.15 K, m1 = 3.002	0.578	1103.78	28.69
303.15 K, m1 = 0.05	0.296	997.53	0.828
303.15 K, m1 = 0.0999	0.538	999.38	0.864
303.15 K, m1 = 0.1996	0.941	1003.06	0.93
303.15 K, m1 = 0.3	1.28	1006.88	0.985
303.15 K, m1 = 0.3997	1.56	1010.59	1.058
303.15 K, m1 = 0.5001	1.78	1014.36	1.145
303.15 K, m1 = 0.5992	1.97	1018.15	1.232
303.15 K, m1 = 0.6993	2.11	1021.82	1.335
303.15 K, m1 = 0.7997	2.23	1025.85	1.45
303.15 K, m1 = 0.9003	2.31	1029.53	1.587
303.15 K, m1 = 0.9988	2.37	1033.42	1.722
303.15 K, m1 = 1.199	2.4	1041.09	2.079
303.15 K, m1 = 1.402	2.35	1048.83	2.519
303.15 K, m1 = 1.6	2.22	1056.27	3.163
303.15 K, m1 = 1.802	2.04	1063.74	3.903
303.15 K, m1 = 1.998	1.828	1070.79	4.953
303.15 K, m1 = 2.2	1.59	1077.7	6.458
303.15 K, m1 = 2.402	1.37	1084.44	8.415
303.15 K, m1 = 2.6	1.109	1090.28	12.17
303.15 K, m1 = 2.798	0.878	1095.67	16.6
303.15 K, m1 = 3.002	0.722	1100.68	22.77
308.15 K, m1 = 0.05	0.327	995.91	0.75
308.15 K, m1 = 0.0999	0.595	997.73	0.783
308.15 K, m1 = 0.1996	1.042	1001.37	0.839
308.15 K, m1 = 0.3	1.416	1005.16	0.887
308.15 K, m1 = 0.3997	1.729	1008.83	0.951
308.15 K, m1 = 0.5001	1.97	1012.54	1.027
308.15 K, m1 = 0.5992	2.19	1016.24	1.102
308.15 K, m1 = 0.6993	2.36	1019.8	1.19
308.15 K, m1 = 0.7997	2.49	1023.89	1.292
308.15 K, m1 = 0.9003	2.59	1027.51	1.407
308.15 K, m1 = 0.9988	2.66	1031.34	1.524
308.15 K, m1 = 1.199	2.7	1038.89	1.83
308.15 K, m1 = 1.402	2.65	1046.51	2.203
308.15 K, m1 = 1.6	2.53	1053.82	2.745
308.15 K, m1 = 1.802	2.33	1061.17	3.361
308.15 K, m1 = 1.998	2.11	1068.11	4.23
308.15 K, m1 = 2.2	1.85	1074.9	5.468
308.15 K, m1 = 2.402	1.6	1081.54	7.079
308.15 K, m1 = 2.6	1.305	1087.28	10.12
308.15 K, m1 = 2.798	1.06	1092.61	13.61
308.15 K, m1 = 3.002	0.848	1097.53	18.37
313.15 K, m1 = 0.05	0.359	994.07	0.687
313.15 K, m1 = 0.0999	0.651	995.89	0.714
313.15 K, m1 = 0.1996	1.143	999.5	0.763
313.15 K, m1 = 0.3	1.56	1003.25	0.806
313.15 K, m1 = 0.3997	1.903	1006.85	0.861
313.15 K, m1 = 0.5001	2.18	1010.55	0.928
313.15 K, m1 = 0.5992	2.43	1014.22	0.994
313.15 K, m1 = 0.6993	2.62	1017.89	1.069
313.15 K, m1 = 0.7997	2.77	1021.76	1.159
313.15 K, m1 = 0.9003	2.88	1025.33	1.258
313.15 K, m1 = 0.9988	2.96	1029.11	1.361
313.15 K, m1 = 1.199	3.02	1036.57	1.623
313.15 K, m1 = 1.402	2.99	1044.07	1.944
313.15 K, m1 = 1.6	2.84	1051.27	2.407
313.15 K, m1 = 1.802	2.65	1058.51	2.925
313.15 K, m1 = 1.998	2.4	1065.33	3.651
313.15 K, m1 = 2.2	2.13	1072.02	4.68
313.15 K, m1 = 2.402	1.843	1078.58	6.032
313.15 K, m1 = 2.6	1.53	1084.23	8.455
313.15 K, m1 = 2.798	1.215	1089.49	11.32
313.15 K, m1 = 3.002	0.987	1094.34	15.06
318.15 K, m1 = 0.05	0.392	992.04	0.632
318.15 K, m1 = 0.0999	0.711	993.83	0.658
318.15 K, m1 = 0.1996	1.25	997.43	0.7
318.15 K, m1 = 0.3	1.707	1001.16	0.737
318.15 K, m1 = 0.3997	2.08	1004.61	0.785
318.15 K, m1 = 0.5001	2.39	1008.39	0.844
318.15 K, m1 = 0.5992	2.66	1012.05	0.902
318.15 K, m1 = 0.6993	2.86	1015.67	0.969
318.15 K, m1 = 0.7997	3.04	1019.49	1.048
318.15 K, m1 = 0.9003	3.17	1023	1.133
318.15 K, m1 = 0.9988	3.26	1026.75	1.222
318.15 K, m1 = 1.199	3.34	1034.11	1.452
318.15 K, m1 = 1.402	3.31	1041.51	1.729
318.15 K, m1 = 1.6	3.19	1048.62	2.122
318.15 K, m1 = 1.802	2.96	1055.75	2.566
318.15 K, m1 = 1.998	2.7	1062.48	3.183
318.15 K, m1 = 2.2	2.4	1069.07	4.044
318.15 K, m1 = 2.402	2.11	1075.55	5.196
318.15 K, m1 = 2.6	1.77	1081.13	7.174
318.15 K, m1 = 2.798	1.411	1086.33	9.493
318.15 K, m1 = 3.002	1.17	1091.09	12.49
323.15 K, m1 = 0.05	0.426	989.83	0.587
323.15 K, m1 = 0.0999	0.772	991.62	0.61
323.15 K, m1 = 0.1996	1.36	995.19	0.645
323.15 K, m1 = 0.3	1.85	998.9	0.678
323.15 K, m1 = 0.3997	2.27	1002.44	0.722
323.15 K, m1 = 0.5001	2.61	1006.07	0.773
323.15 K, m1 = 0.5992	2.92	1009.7	0.825
323.15 K, m1 = 0.6993	3.14	1013.4	0.883
323.15 K, m1 = 0.7997	3.34	1017.08	0.953
323.15 K, m1 = 0.9003	3.48	1020.5	1.028
323.15 K, m1 = 0.9988	3.59	1024.22	1.106
323.15 K, m1 = 1.199	3.69	1031.52	1.307
323.15 K, m1 = 1.402	3.64	1038.79	1.549
323.15 K, m1 = 1.6	3.52	1045.84	1.895
323.15 K, m1 = 1.802	3.28	1052.89	2.274
323.15 K, m1 = 1.998	3	1059.54	2.797
323.15 K, m1 = 2.2	2.69	1066.05	3.527
323.15 K, m1 = 2.402	2.38	1072.45	4.525
323.15 K, m1 = 2.6	2.01	1077.96	6.112
323.15 K, m1 = 2.798	1.628	1083.11	8.069
323.15 K, m1 = 3.002	1.341	1087.78	10.49
